“And” between values parts separate entries of the source, which are not always exact repeats. Identical values can stand only once.
Assays:
[1] = system: Escherichia coli K-12 MG1655; assay: Screening for tolerance in wild-type cells: growth in varying concentrations of neutralized diacid, Biolector; assay type: cell-based; conditions: for tlag (lag time), mean / μ (growth rate), mean: neutralized with sodium hydroxide; for maximum measured concentration at which exponentially growing K-12 MG1655 can grow: neutralized diacid in M9+1% glucose
Experimental: Escherichia coli K-12 MG1655 was grown overnight in M9 minimal medium+1% glucose and subcultured the following morning to an initial OD600 of 0.05 in M9+1% glucose. Cells were grown to mid-exponential phase (OD600 0.7-1.0) and were back-diluted with fresh medium to an OD600 of 0.7. The diluted cells were used to inoculate M9+1% glucose containing varying concentrations of glutaric acid or adipic acid which were neutralized to pH 7.0 with sodium hydroxide, and growth was measured in FlowerPlates in a Biolector microbioreactor system (m2p-labs) at 37° C. with 1000 rpm shaking. The culture volume in each well was 1.4 mL.

[2] = system: Escherichia coli K-12 MG1655 knockout mutants; assay: Growth Profiler growth screening of K-12 MG1655 single, double and triple knockout mutants in glutaric or adipic acid; assay type: cell-based
[3] = strain MG1655, M9 + 25 g/L adipate (neutralized)
[4] = strain MG1655, M9 + 50 g/L adipate (neutralized)
[5] = strain MG1655 kgtP::kan, M9 + 25 g/L adipate (neutralized)
[6] = strain MG1655 kgtP::kan, M9 + 50 g/L adipate (neutralized)
[7] = strain MG1655 ΔkgtP proV::kan, M9 + 25 g/L adipate (neutralized)
[8] = strain MG1655 ΔkgtP pstS::kan, M9 + 25 g/L adipate (neutralized)
[9] = strain MG1655 ΔkgtP pstS::kan, M9 + 50 g/L adipate (neutralized)
[10] = strain MG1655 ΔkgtP sspA::kan, M9 + 25 g/L adipate (neutralized)
[11] = strain MG1655 ΔkgtP ΔproV nagC::kan, M9 + 25 g/L adipate (neutralized)
[12] = strain MG1655 ΔkgtP ΔproV nagC::kan, M9 + 50 g/L adipate (neutralized)
[13] = strain MG1655, M9 + 23.8 g/L glutarate (neutralized)
[14] = strain MG1655, M9 + 47.5 g/L glutarate (neutralized)
[15] = strain MG1655 kgtP::kan, M9 + 23.8 g/L glutarate (neutralized)
[16] = strain MG1655 kgtP::kan, M9 + 47.5 g/L glutarate (neutralized)
[17] = strain MG1655 ΔkgtP nagC::kan, M9 + 23.8 g/L glutarate (neutralized)
[18] = strain MG1655 ΔkgtP nagC::kan, M9 + 47.5 g/L glutarate (neutralized)
[19] = strain MG1655 ΔkgtP proV::kan, M9 + 23.8 g/L glutarate (neutralized)
[20] = strain MG1655 ΔkgtP rnb::kan, M9 + 23.8 g/L glutarate (neutralized)
[21] = strain MG1655 ΔkgtP rnb::kan, M9 + 47.5 g/L glutarate (neutralized)
[22] = strain MG1655 ΔkgtP sspA::kan, M9 + 23.8 g/L glutarate (neutralized)
[23] = strain MG1655 ΔkgtP ΔproV nagC::kan, M9 + 23.8 g/L glutarate (neutralized)
[24] = strain MG1655 ΔkgtP ΔproV nagC::kan, M9 + 47.5 g/L glutarate (neutralized)

Structure (SMILES): O=C(O)CCCCC(=O)O [adipic acid]
- tlag (lag time), mean ([1]; 10 g/L): 1.0 h
- μ (growth rate), mean ([1]; 10 g/L, M9+1% glucose, 37° C): 0.575 h⁻¹
- tlag (lag time), mean ([1]; 20 g/L): 1.3 h
- μ (growth rate), mean ([1]; 20 g/L): 0.494 h⁻¹
- tlag (lag time), mean ([1]; 30 g/L): 1.8 h
- μ (growth rate), mean ([1]; 30 g/L): 0.367 h⁻¹
- tlag (lag time), mean ([1]; 40 g/L): 4.0 h
- μ (growth rate), mean ([1]; 40 g/L): 0.263 h⁻¹
- tlag (lag time), mean ([1]; 50 g/L): 2.4 h
- μ (growth rate), mean ([1]; 50 g/L): 0.120 h⁻¹
- tlag (lag time), mean ([1]; 75 g/L): 27 h and 27.2 h
- μ (growth rate), mean ([1]; 75 g/L): 0.203 h⁻¹
- μ (growth rate), mean ([1]; 100 g/L): 0.000 h⁻¹
- maximum measured concentration at which exponentially growing K-12 MG1655 can grow [1]: 75 g/L
- mean growth rate μ [2, 3]: 0.467 h⁻¹
- mean lag time tlag [2, 3]: 6.9 h
- mean growth rate μ [2, 4]: 0.115 h⁻¹
- mean lag time tlag [2, 4]: 25.7 h
- mean growth rate μ [2, 5]: 0.534 h⁻¹
- mean lag time tlag [2, 5]: 6.4 h
- mean growth rate μ [2, 6]: 0.192 h⁻¹
- mean lag time tlag [2, 6]: 17.5 h
- mean growth rate μ [2, 7]: 0.583 h⁻¹
- mean lag time tlag [2, 7]: 6.2 h
- mean growth rate μ [2, 8]: 0.465 h⁻¹
- mean lag time tlag [2, 8]: 7.6 h
- mean growth rate μ [2, 9]: 0.139 h⁻¹
- mean lag time tlag [2, 9]: 21.3 h
- mean growth rate μ [2, 10]: 0.525 h⁻¹
- mean lag time tlag [2, 10]: 6.8 h
- mean lag time tlag ([2]; strain MG1655 ΔkgtP sspA::kan, M9 + 50 g/L adipate (neutralized)): 49.2 h
- mean growth rate μ [2, 11]: 0.501 h⁻¹
- mean lag time tlag [2, 11]: 6.8 h
- mean growth rate μ [2, 12]: 0.213 h⁻¹
- mean lag time tlag [2, 12]: 19.7 h

Structure (SMILES): O=C(O)CCCC(=O)O [glutaric acid]
- tlag (lag time), mean ([1]; 10 g/L): 2.0 h
- μ (growth rate), mean ([1]; 10 g/L, M9+1% glucose, 37° C): 0.526 h⁻¹
- tlag (lag time), mean ([1]; 20 g/L): 1.9 h
- μ (growth rate), mean ([1]; 20 g/L): 0.377 h⁻¹
- tlag (lag time), mean ([1]; 30 g/L): 0.6 h
- μ (growth rate), mean ([1]; 30 g/L): 0.234 h⁻¹
- tlag (lag time), mean ([1]; 40 g/L): 0.7 h
- μ (growth rate), mean ([1]; 40 g/L): 0.132 h⁻¹
- tlag (lag time), mean ([1]; 50 g/L): 15.9 h
- μ (growth rate), mean ([1]; 50 g/L): 0.096 h⁻¹
- μ (growth rate), mean ([1]; 75 g/L): 0.000 h⁻¹
- maximum measured concentration at which exponentially growing K-12 MG1655 can grow [1]: 50 g/L
- mean growth rate μ [2, 13]: 0.466 h⁻¹
- mean lag time tlag [2, 13]: 7.4 h
- mean growth rate μ [2, 14]: 0.101 h⁻¹
- mean lag time tlag [2, 14]: 21.8 h
- mean growth rate μ [2, 15]: 0.487 h⁻¹
- mean lag time tlag [2, 15]: 6.1 h
- mean growth rate μ [2, 16]: 0.191 h⁻¹
- mean lag time tlag [2, 16]: 13.5 h
- mean growth rate μ [2, 17]: 0.491 h⁻¹
- mean lag time tlag [2, 17]: 6.7 h
- mean growth rate μ [2, 18]: 0.179 h⁻¹
- mean lag time tlag [2, 18]: 15.0 h
- mean growth rate μ [2, 19]: 0.520 h⁻¹
- mean lag time tlag [2, 19]: 6.2 h
- mean growth rate μ ([2]; strain MG1655 ΔkgtP proV::kan, M9 + 47.5 g/L glutarate (neutralized)): 0.251 h⁻¹
- mean growth rate μ [2, 20]: 0.505 h⁻¹
- mean lag time tlag [2, 20]: 6.3 h
- mean growth rate μ [2, 21]: 0.183 h⁻¹
- mean lag time tlag [2, 21]: 13.6 h
- mean growth rate μ [2, 22]: 0.473 h⁻¹
- mean lag time tlag [2, 22]: 6.1 h
- mean lag time tlag ([2]; strain MG1655 ΔkgtP sspA::kan, M9 + 47.5 g/L glutarate (neutralized)): 12.2 h
- mean growth rate μ [2, 23]: 0.541 h⁻¹
- mean lag time tlag [2, 23]: 6.6 h
- mean growth rate μ [2, 24]: 0.215 h⁻¹
- mean lag time tlag [2, 24]: 14.0 h

From patent publication US20230139445A1, “BACTERIAL CELLS WITH IMPROVED TOLERANCE TO DIACIDS” (priority 2016, published 2023)
